Data: US20030077709A1 (priority 2000, published 2003)

Experiments:
[1] = tested on: JULF2 stably expressing CHO cells; experiment: Cell migration test of JULF2 stably expressing CHO cells toward LTB4; format: cell-based, human
Method: (§1) A 8 μm pore polycarbonate frame filter (mfd. by Neuroprobe) was treated with 10 μg/ml fibronectin (Asahi Technoglass)/PBS at 4° C. overnight. […] After 4 hours of culturing at 37° C. in a CO2 incubator, the frame filter was fixed with methanol and stained with Diff-Quik Staining Kit (International Reagents Corporation). The upper surface of this filter (the side on which cells were set) was wiped and air-dried and then absorbance at 595 nm was measured using a plate reader (Molecular Devices). Also, in order to examine pertussis toxin (PTX) sensitivity of the JULF2 stably expressing CHO cells, JULF2 stably expressing CHO cells treated with 50 ng/ml PTX for 20 hours were subjected to a cell migration test (FIG. 2).

[2] = tested on: control vector-introduced CHO cells; experiment: cAMP production test toward LTB4 in control vector-introduced CHO cells; format: cell-based; conditions: 1 μM forskolin, 0 to 1 μM LTB4
Method: The CHO-dhfr(−) strain was inoculated at a density of 1×10^6 cells into a 10 cm Petri dish containing αMEM (supplemented with nucleic acids) medium/10% fetal bovine serum and cultured for 1 day and then subjected to gene transfer of 8 μg of pEF-BOS-dhfr-Jul22 and pEF-BOS-dhfr (control vector) using FuGENE6 (mfd. by Boehringer Mannheim). The gene-transferred cells were recovered 24 hours thereafter, suspended in αMEM (nucleic acid-free) medium/100 nM methotrexate (mfd. by Wako Pure Chemical Industries)/10% fetal bovine serum and then serially diluted and inoculated again into the 10 cm Petri dish. Colonies formed after 2 weeks were separately isolated and used as JULF2 stably expressing CHO cells.
Each of the JULF2 stably expressing CHO cells and control vector-introduced CHO cells was inoculated into a 24 well plate at a density of 1×10^5 cells. […] After 30 minutes at 37° C., the culture supernatant was discarded and the cells were lysed using a cAMP EIA System (BIOTRAK; mfd. by Amersham) cell lysis solution.
Measurement of the produced amount of cAMP in cells under each condition was carried out using the cAMP EIA System in accordance with the attached protocol. […] On the other hand, changes in the produced amount of cAMP by the addition of LTB4 were not found in the control vector-introduced CHO cells.

[3] = tested on: rat JULF2 stably expressing CHO cell; experiment: Cell migration test of rat JULF2 stably expressing CHO cell toward LTB4; format: cell-based; conditions: same method of Example 6
Method: as §1

[4] = biological target: T1, JULF2 (Homo sapiens, UniProt Q9NPC1); experiment: Screening of compounds which inhibit cAMP inhibition action by LTB4 using JULF2 stably expressing CHO cell; format: cell-based
T1 construct: expressed in transfected cells
T1 sequence (Q9NPC1 1-358): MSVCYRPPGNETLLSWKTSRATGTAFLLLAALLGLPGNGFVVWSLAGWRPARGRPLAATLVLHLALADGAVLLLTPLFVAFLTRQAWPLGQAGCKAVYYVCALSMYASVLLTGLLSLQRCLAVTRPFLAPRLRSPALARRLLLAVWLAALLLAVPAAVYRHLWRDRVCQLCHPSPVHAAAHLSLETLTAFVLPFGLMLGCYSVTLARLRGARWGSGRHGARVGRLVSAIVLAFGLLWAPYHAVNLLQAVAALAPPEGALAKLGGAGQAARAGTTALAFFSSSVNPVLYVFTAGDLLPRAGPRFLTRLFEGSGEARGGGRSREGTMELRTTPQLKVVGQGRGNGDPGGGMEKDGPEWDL
Excerpt: The compound A, compound B and compound C are commercially available reagents, and compound A is on the market as a code number 0199-0032 of ChemDiv, Inc, and compound B as a code number TPB-488 of InterBioScreen. […] In this connection, the property of the compound A to show anti-inflammatory effect is also described in Biochemical Pharmacology, 51, 737-742, 1996.

[5] = biological target: T1, JULF2; experiment: Inhibition of binding of [3H]LTB4 to JULF2 expressing cell membrane fraction
Method: The DNA fragment obtained in Example 1 coding for JULF2 was digested with XbaI and then cloned into pCEP4 (mfd. by Invitrogen) to be used as an expression vector (pCEP4-JULF2) for expressing JULF2. HEK293-EBNA strain was inoculated into a 15 cm Petri dish at a density of 5×10^6 cells and cultured for 1 day, and then 20 μg of pCEP4-JULF2 was subjected to gene transfer using Lipofectamine-2000 (mfd. by Gibco BRL). The gene-transferred cells were recovered 24 hours thereafter, washed, suspended in 20 mM Tris-HCl (pH 7.4)/5 mM EDTA and then homogenized using Polytron. After ultracentrifugation, the sediment was suspended in 20 mM Tris-HCl (pH 7.4) and used as a membrane fraction.
A liquid scintillation was added to the glass filter and the radioactivity was measured using a liquid scintillation counter.

[6] = tested on: JULF2 stably expressing CHO cell; experiment: Cell migration inhibition by JULF2 antagonist for migration of JULF2 stably expressing CHO cell toward LTB4; format: cell-based, human; conditions: compound 0.03 to 100 μM in upper layer, 100 nM LTB4 in lower layer
Method: as §1

Row | Compound | LTB4 concentration at which the migration activity becomes maximum (bell type chemotaxis) ([1]; JULF2 stably expressing CHO cells, 4 hours at 37° C., LTB4 in lower layer) | changes in the produced amount of cAMP by the addition of LTB4 [2] | LTB4 concentration at which the migration activity becomes maximum (bell type chemotaxis) [3] | IC50 [4] | IC50 [5] | inhibition of cell migration toward LTB4 [6] | inhibition of migration toward LTB4 by PTX pretreatment ([1]; JULF2 stably expressing CHO cells treated with 50 ng/ml PTX for 20 hours)
1 | CCCCC/C=C\C[C@@H](O)/C=C/C=C/C=C\[C@@H](O)CCCC(=O)O [LTB4, leukotriene B4] | 30 nM | not found | 100 nM |  |  |  | 
2 | CCCCCCOc1ccc(C(=N)NO)cc1 [compound B, 4-hexyloxy-N-hydroxybenzenecarboximidoamide] |  |  |  | 6.7 µM | 5.7 µM | inhibit cell migration toward LTB4 in a dose-dependent manner | 
3 | pertussis toxin [PTX] |  |  |  |  |  |  | completely inhibited
4 | CCCCCCCCOc1ccc(C(=N)N)cc1.Cl [compound A, 4-octyloxybenzenecarboximidoamide hydrochloride] |  |  |  | 0.4 µM | 0.1 µM | inhibit cell migration toward LTB4 in a dose-dependent manner | 
